Measured values taken from patent US20240239786A1, “COMPOSITIONS AND METHODS FOR THE TREATMENT AND PREVENTION OF CANCER” (Yale University, priority 2021, published 2024).

How the values were obtained:
[1] = Chemical stability of DB4 in culture medium by mass spectrometry; format: physicochemical; conditions: 50 μM, 37° C., 72 hr vs 0 hr
Procedure: DB4 remained mostly active and intact after 72 hr in the culture medium. The dose response curve of DB4 in DNA synthesis inhibition in PEO4 cells was generated as determined by EdU flow cytometric analysis. […] PEO4 cells were treated with these media for 24 hr. The level of DNA synthesis inhibition was determined to interpolate and calculate % DB4 remaining compared with the control at 0 hr. FIG. 5B depicts representative results for remaining DB4 after DB4 (MW=496.1) was added to the culture medium at 50 μM for 0 hr, 24 hr, 48 hr, or 72 hr at 37° C. FIG. 5C depicts representative mass spectrum obtained from mass spectrometry that was run to detect the level of the 496.13 ion at 0 hr. FIG. 5D depicts representative mass spectrum obtained from mass spectrometry that was run to detect the level of the 496.13 ion at 72 hr.
To ensure that DB4 remained chemically stable, the time course study was performed by determining the potency of DB4 following a pre-incubation in the cell-free medium at 37° C. for up to 72 hr. Cells were treated for 24 hr with the medium containing pre-incubated DB4 and DNA synthesis was determined by the EdU incorporation assay.
DB4 was dissolved in DMEM medium at 50 μM and incubated for 0 hr, 24 hr, 48 hr, and 72 hr at 37° C. and flash frozen after incubation. […]

PEO1 cells = experiment: MTS cytotoxicity assay, sensitization to olaparib, PEO1; format: cell-based; conditions: 30 μM, olaparib 72 hr
Procedure: (§1) Cells were pre-treated with 30 μM DB4 for 1 hr and then treated with various concentrations of olaparib for 72 hr. Cell survival was determined by MTS cytotoxicity assay. Data are means±SD (N=3-4). […] EOB calculation was used to quantify the synergy of the combination of DB4 and various concentrations of olaparib in PEO1 or PEO4 cells as shown in FIG. 8A. EOB>0, synergism; EOB=0, additivity; EOB<0, antagonism. […] Cells were pre-treated with 30 μM DB4-F for 1 hr and then treated with various concentrations of olaparib for 72 hr. Cell survival was determined by MTS cytotoxicity assay. Data are means±SD (N=3-4). […] EOB calculation was used to quantify the synergy of the combination of DB4-F and various concentrations of olaparib in PEO1 or PEO4 cells as shown in FIG. 8B. EOB>0, synergism; EOB=0, additivity; EOB<0, antagonism. […] Cell survival was determined by MTS cytotoxicity assay. […] Caspase 3/7 activity was expressed as RLU per μg/μl protein. […] Caspase 3/7 activity was expressed as RLU per μg/μl protein. […] Cells were treated and caspase 3/7 activity was measured as described in FIG. 8G and FIG. 8H.
(§2) It was also examined whether DB4 sensitized BRCA-wild type EOC cells to a PARP inhibitor. BRCA2-mutated PEO1 and BRCA2-wild type PEO4 cells were treated with DB4 at 30 μM in combination with various concentrations of olaparib and cell survival was determined. […]

PEO4 cells = experiment: MTS cytotoxicity assay, sensitization to olaparib, PEO4; format: cell-based; conditions: 30 μM, olaparib 72 hr
Procedure: as §1, §2

[2] = molecular target: T1, ribonucleotide reductase (RNR) (Homo sapiens, UniProt P31350); conditions: fold more potent than hydroxyurea; cited from earlier work
T1 sequence (P31350 1-389): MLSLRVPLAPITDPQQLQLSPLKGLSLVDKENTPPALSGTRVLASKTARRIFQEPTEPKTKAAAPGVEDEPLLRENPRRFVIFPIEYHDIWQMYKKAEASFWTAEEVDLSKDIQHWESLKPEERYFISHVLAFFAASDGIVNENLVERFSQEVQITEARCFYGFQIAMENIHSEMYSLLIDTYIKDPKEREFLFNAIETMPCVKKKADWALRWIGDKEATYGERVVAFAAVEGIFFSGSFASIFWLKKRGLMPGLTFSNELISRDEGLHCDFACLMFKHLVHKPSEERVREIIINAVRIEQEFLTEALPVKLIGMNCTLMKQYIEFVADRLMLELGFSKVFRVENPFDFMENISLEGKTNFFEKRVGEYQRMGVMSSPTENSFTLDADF

SMILES | level of DB4 by mass spectrometry [1] | sensitization to olaparib (cell survival) (PEO1 cells) | sensitization to olaparib (cell survival) (PEO4 cells) | potency relative to the RNR inhibitor hydroxyurea [2]
C=CCn1c(SCc2cccc(Cl)c2)nnc1C1CCN(Cc2nc3ccccc3s2)CC1 [DB4, 2-[(4-{4-allyl-5-[(3-chlorobenzyl)thio]-4H-1,2,4-triazol-3-yl}-1-piperidinyl)methyl]-1,3-benzothiazole] | remained similar to that of the 0 hr control | minimal effects | effectively sensitized | 
NC(=S)NN=Cc1ncccc1N [triapine, 3-aminopyridine-2-carboxaldehyde-thiosemicarbazone, reference compound] |  |  |  | 1,000 times
